Assay results: patent US20190030114A1, “ISOFORM-SPECIFIC CALPAIN INHIBITORS, METHODS OF IDENTIFICATION, AND USES THEREOF” (WESTERN UNIVERSITY OF HEALTH SCIENCES, priority 2014, published 2019)

System: retina (GCL, IPL)
Test: retinal damage induced by intravitreal NMDA injection, systemic (i.p.) inhibitor
Assay type: in vivo, mice
Experimental: FIG. 8A: Representative images show H&E-stained ganglion cell and Plexiform layers of: i) naïve retina; ii) PBS-treated (intravitreally, 2 μI) or NMDA-treated (intravitreally, 2 μI of 2.5 mM) retina from wild-type mice that had been intraperitoneally injected with vehicle (20% DMSO), Formula I (C2l in the drawing, 0.3 mg/kg) or the pan-calpain inhibitor calpeptin (10 mg/kg) at 30 min before and 6 h after NMDA injection. H&E staining was done at 7 days after NMDA injection.
FIG. 8B: Quantitative analysis of cell number in the GCL of wild-type mice that had been injected intravitreally 7 days earlier with either 2 μI PBS or 2 μI NMDA (2.5 mM). The mice were intraperitoneally injected with vehicle (20% DMSO), a Formula I (C2l in the drawing, 0.3 mg/kg) or the pan-calpain inhibitor calpeptin (10 mg/kg) at 30 min before and 6 h after NMDA injection. Columns represent mean±S.E.M. n=4-6. *p<0.05; **p<0.01; ***p<0.001 versus NMDA plus vehicle-injected group. One-way ANOVA followed by Bonferroni test.
FIG. 8C: Quantitative analysis of thickness of the IPL of wild-type mice that had been injected intravitreally 7 days earlier with either 2 μI PBS or 2 μI NMDA (2.5 mM). The mice were intraperitoneally injected with vehicle (20% DMSO), Formula I (C2l in the drawing, 0.3 mg/kg) or the pan-calpain inhibitor calpeptin (10 mg/kg) at 30 min before and 6 h after NMDA injection.
FIG. 9A: Representative immunoblot of the levels of Spectrin breakdown products (SBDP), full-length PH domain and Leucine-rich repeat Protein Phosphatase 1 (PHLPP1)α and Akt in mouse retinal extracts 6 h after intravitreal injection of PBS (control) or NMDA (2 μI of 2.5 mM). Mice were injected i.p. with vehicle (10% DMSO) or C2l (0.3 mg/kg) 30 min before intravitreal injection.
FIG. 9B: Quantitation of ratios of SBDP/Akt, as determined in retinal extracts 6 h after NMDA or PBS injections. Data represent means±S.E.M. n=4. *p<0.05, ***p<0.001,. One-way ANOVA followed by Bonferroni test.
FIG. 9C: Quantitation of ratios of PHLPP1α/Akt, as determined in retinal extracts 6 h after NMDA or PBS injections. Data represent means±S.E.M. n=4. *p<0.05, ***p<0.001,. One-way ANOVA followed by Bonferroni test.
(§1) FIG. 9E: Quantitative analysis of cell number in the GCL from wild-type mice 7 days after NMDA-injection. Six sections cut through the optic disc from each eye were analyzed. Cell numbers in GCL at a distance between 500 and 1000 μm from the optic disc were counted. Cell densities from 6 sections from each eye were averaged.
as §1, with “FIG. 9F:” for “FIG. 9E:”, “of thickness of” for “of cell number in”, “the IPL” for “the GCL”
as §1, with “9H:” for “9E:”, “calpain-1 KO” for “wild-type”, “averaged. Data represent means±S.E.M. n=6. *p<0.05, **p<0.01, ***p<0.001, One-way ANOVA followed by Bonferroni test.” for “averaged.”
as §1, with “9I:” for “9E:”, “thickness of” for “cell number in”, “IPL of calpain-1” for “GCL from wild-type”, “averaged. Data represent means±S.E.M. n=6. *p<0.05, **p<0.01, ***p<0.001, One-way ANOVA followed by Bonferroni test.” for “averaged.”
FIG. 9J: Comparison of GCL cell numbers in NMDA-treated WT and KO mice without and with C2l treatment. n=6. **p<0.01. Two-tailed t-test. […]

[1] = WT mice, i.p. 30 min before and 6 h after NMDA
[2] = calpain-1 KO mice, systemic injection
[3] = i.p. 30 min before NMDA, 6 h after NMDA, WT mice

CCC(NC(=O)C(CC(C)C)NC(=O)OCc1ccccc1)C(=O)C(=O)NCc1cc(OC)cc(OC)c1 (racemic) [Formula 1, Z-Leu-Abu-CONH—CH2-C6H3 (3, 5-(OMe)2)]
NMDA-induced retinal damage (0.3 mg/kg i.p. 30 min before and 6 h after NMDA, wild-type mice): protective against NMDA-induced retinal damage | effect on GCL cell survival, KO versus WT mice (NMDA-treated): lower in KO mice than in WT mice | NMDA-induced reduction in GCL cell density [1]: significantly suppressed the reduction | NMDA-induced reduction in IPL thickness [1]: significantly suppressed the reduction | NMDA-induced decrease in GCL cell density [2]: partially but significantly reversed | NMDA-induced decrease in IPL thickness [2]: partially but significantly reversed | NMDA-induced changes in PHLPP1 in retinal extracts [3]: not | NMDA-induced changes in SBDP in retinal extracts [3]: significantly suppressed
